Measured values: patent US12066439B2, “Methods for enhancing specificity and sensitivity of group a Streptococcus immunoassay” (Becton, Dickinson and Company, priority 2021, dated 2024)
“Also recorded” adds a separate entry of the source.

Key:
[1] = system: anti-Strep A polyclonal antibodies; test: Strep A lateral flow immunoassay (Veritor Strep A), false positive signal from porcine mucin samples; type: binding; settings: for false positive signals from porcine mucin samples: agent added directly to the sample, 4x mucin standard (~2.5 mg/mL), FIGS. 5-6
Experimental: 2-N-butanoyl-D-glucosamide, or Bis-(2-(D-2-deoxy-glucosaminyl))-PEG3-amide were tested for their ability to inhibit or block the binding of the anti-Strep A polyclonal antibodies in the Strep A immunoassay (Veritor™ Strep A assay). Porcine mucin samples were used as a surrogate of human saliva sample, and were tested with an immunoassay test strip for specificity. Using an immunoassay device for detection of Strep A, the effect of 2-N-butanoyl-D-glucosamide, or Bis-(2-(D-2-deoxy-glucosaminyl))-PEG3-amide on the performance of Strep A assay was evaluated using 4× concentration of mucin standard (˜2.5 mg/mL) and Test Standard 1. […] Different concentrations of 2-N-butanoyl-D-glucosamide, or Bis-(2-(D-2-deoxy-glucosaminyl))-PEG3-amide in an immunoassay were evaluated for inhibition of Strep A false positive signals.
m-PEG4-glucosamine, m-PEG6-glucosamine, m-PEG10-glucosamine and m-PEG5000-glucosamine were tested for their ability to inhibit or block the binding of the anti-Strep A polyclonal antibodies in the Strep A immunoassay. […] Different concentrations of m-PEG4-glucosamine, m-PEG6-glucosamine, m-PEG10-glucosamine and m-PEG5000-glucosamine in an immunoassay were evaluated for inhibition of Strep A false positive signals.

[2] = system: anti-Strep A polyclonal antibodies; test: Strep A lateral flow immunoassay (Veritor Strep A), sensitivity with sample containing Strep A antigen; type: binding; settings: for sensitivity of the Strep A assay: agent mixed with sample containing Strep A antigen, FIG. 10
Experimental: FIGS. 1A-1C show the effect of N-propionyl-D-glucosamine on the sensitivity and false positivity of the Veritor™ Strep A assay when analyzing a test sample. The N-propionyl-D-glucosamine was added to the extraction reagent and mixed with porcine mucin, a surrogate of human mucin from saliva for specificity, or with Strep A extract for sensitivity.
2-N-butanoyl-D-glucosamide, or Bis-(2-(D-2-deoxy-glucosaminyl))-PEG3-amide were tested for their ability to inhibit or block the binding of the anti-Strep A polyclonal antibodies in the Strep A immunoassay (Veritor™ Strep A assay). Porcine mucin samples were used as a surrogate of human saliva sample, and were tested with an immunoassay test strip for specificity. Using an immunoassay device for detection of Strep A, the effect of 2-N-butanoyl-D-glucosamide, or Bis-(2-(D-2-deoxy-glucosaminyl))-PEG3-amide on the performance of Strep A assay was evaluated using 4× concentration of mucin standard (˜2.5 mg/mL) and Test Standard 1. Either 2-N-butanoyl-D-glucosamide, or Bis-(2-(D-2-deoxy-glucosaminyl))-PEG3-amide was added directly to the sample. Different concentrations of 2-N-butanoyl-D-glucosamide, or Bis-(2-(D-2-deoxy-glucosaminyl))-PEG3-amide in an immunoassay were evaluated for inhibition of Strep A false positive signals.

[3] = system: Rabbit polyclonal antibodies for Group A Strep; settings: previous studies, US 2013/0196337; cited from earlier work
[4] = system: anti-Strep A polyclonal antibodies; test: Strep A lateral flow immunoassay (Veritor Strep A), false positive signal from saliva samples; type: binding; settings: saliva from asymptomatic patients; FIGS. 1-4
Experimental: Saliva samples were collected from four asymptomatic patients and tested with an immunoassay test strip for specificity. Previous studies have reported that samples obtained from the mouth tissues, saliva, cheek and tongue of healthy control patients show high false positive rates for Strep A when assayed via a lateral flow immunoassay. See US20130196337A1.
N-propionyl-D-glucosamine was tested for its ability to inhibit or block the binding of the anti-Strep A polyclonal antibodies in the Strep A immunoassay. Saliva samples from four asymptomatic patients were obtained for testing. Using an immunoassay device for detection of Strep A, the four saliva samples were each treated with the extraction reagents (such as the extraction reagents in a commercially available BD Veritor™ Strep A kit) in the presence of N-propionyl-D-glucosamine, which was dried on the conjugate pad during the spraying of liquid conjugate on the conjugate pad (labeling zone). Different concentrations of N-propionyl-D-glucosamine in an immunoassay were evaluated for inhibition of Strep A false positive signals.

[5] = system: anti-Strep A polyclonal antibodies; test: Strep A detection assay, agent added to extraction solution (GAS 1+2) without mucin; type: binding; settings: no mucin, FIG. 11
[6] = agent added directly to the sample, Test Standard 1, FIGS. 5-6
[7] = high concentration in sample pad or conjugate pad dipping solution, FIG. 8
[8] = lower concentrations (zero to 12.5 mM tested) in conjugate pad dipping solution, FIG. 9
[9] = agent mixed with porcine mucin sample, FIG. 10

CCCC(=O)N[C@H]1C(O)O[C@H](CO)[C@@H](O)[C@@H]1O (stereo partly drawn) [2-N-butanoyl-D-glucosamide]
false positive signals from porcine mucin samples [1]: efficiently suppressed | overall sensitivity of the Veritor Strep A assay [2, 6]: did not significantly reduce

CC(=O)N[C@H]1C(O)O[C@H](CO)[C@@H](O)[C@@H]1O (stereo partly drawn) [N-acetyl-D-glucosamine]
assay sensitivity [3]: significant reduction | assay specificity (interference by salivary proteins) [3]: can improve assay specificity

CCC(=O)N[C@H]1C(O)O[C@H](CO)[C@@H](O)[C@@H]1O (stereo partly drawn) [N-propionyl-D-glucosamine]
overall sensitivity of the Veritor Strep A assay ([2]; FIG. 1 and FIG. 3): did not reduce | false positive signals from saliva specimens [4]: efficiently suppressed

Bis-(2-(D-2-deoxy-glucosaminyl))-PEG3-amide
mucin induced false positive signal ([1]; added in sample, two lots of Strep A devices that previously showed mucin cross-reaction, FIG. 7): significantly reducing | false positive signal ([1]; added to conjugate pad dipping solution and/or sample pad dipping solution, FIG. 8): significantly reduced | false positive signals from porcine mucin samples [1]: efficiently suppressed | false positive signal caused by mucin [1, 7]: effectively eliminate | mucin cross-reaction [1, 8]: effectively eliminate | true sensitivity ([2]; added in sample, two lots of Strep A devices, FIG. 7): slightly inhibited | overall sensitivity of the Veritor Strep A assay [2, 6]: did not significantly reduce | true signal [2, 7]: inhibit | true sensitivity [2, 8]: without much impact

m-PEG4-glucosamine
mucin cross-reaction [1, 9]: effective in eliminating | sensitivity of the Strep A assay [2]: without significant impact

m-PEG6-glucosamine
mucin cross-reaction [1, 9]: effective in eliminating | sensitivity of the Strep A assay [2]: without significant impact

m-PEG10-glucosamine
mucin cross-reaction [1, 9]: effective in eliminating | sensitivity of the Strep A assay [2]: without significant impact

m-PEG5000-glucosamine
false positive signal when mucin is not present [5]: no any false positive signal was observed | false positive signal caused by mucin ([1]; agent added to sample, mucin present, FIG. 11): did not reduce the false positive signal caused by mucin, but instead increases the false positive signal; also recorded: does not reduce the false positive signal caused by mucin, but instead increases the false positive signal
